Measured values reported in US20260125360A1, “HERBICIDAL IMIDAZOLE COMPOUNDS” (SYNGENTA CROP PROTECTION AG, priority 2022, published 2026).

How the values were obtained:
Format in all cases: in vivo
Settings in all cases: 250 g/ha, evaluated after 13 days
[1] = system: Amaranthus retoflexus (AMARE); experiment: Post-emergence herbicide glasshouse test
Procedure: (§1) Seeds of a variety of test species are sown in standard soil in pots Amaranthus palmeri (AMAPA), Amaranthus retoflexus (AMARE), Echinochloa crus-galli (ECHCG), Ipomoea hederacea (IPOHE)). After cultivation for one day (pre-emergence) or after 8 days cultivation (post-emergence) under controlled conditions in a glasshouse (at 24/16° C., day/night; 14 hours light; 65% humidity), the plants are sprayed with an aqueous spray solution derived from the formulation of the technical active ingredient in acetone/water (50:50) solution containing 0.5% Tween 20 (polyoxyethelyene sorbitan monolaurate, CAS RN 9005-64-5). Compounds are applied at 250 g/ha unless otherwise stated. The test plants are then grown in a glasshouse under controlled conditions in a glasshouse (at 24/16° C., day/night; 14 hours light; 65% humidity) and watered twice daily. After 13 days for pre and post-emergence, the test is evaluated for the percentage damage caused to the plant. The biological activities are shown in the following table on a five-point scale (5=81-100%; 4=61-80%; 3=41-60%; 2=21-40%; 1=0-20%).

[2] = system: Amaranthus palmeri (AMAPA); experiment: Post-emergence herbicide glasshouse test
Procedure: as §1

[3] = system: Ipomoea hederacea (IPOHE); experiment: Post-emergence herbicide glasshouse test
Procedure: as §1

[4] = system: Echinochloa crus-galli (ECHCG); experiment: Post-emergence herbicide glasshouse test
Procedure: as §1

[5] = system: Amaranthus retoflexus (AMARE); experiment: Pre-emergence herbicide glasshouse test
Procedure: as §1

[6] = system: Amaranthus palmeri (AMAPA); experiment: Pre-emergence herbicide glasshouse test
Procedure: as §1

[7] = system: Ipomoea hederacea (IPOHE); experiment: Pre-emergence herbicide glasshouse test
Procedure: as §1

[8] = system: Echinochloa crus-galli (ECHCG); experiment: Pre-emergence herbicide glasshouse test
Procedure: as §1

Cn1cnc(Cn2cc(C#N)nc2-c2ccc(F)c(F)c2)n1 [Compound 1.184]
5 (5=81-100%): percentage damage caused to the plant, AMARE (five-point scale) [1] | percentage damage caused to the plant, AMAPA (five-point scale) [2] | percentage damage caused to the plant, IPOHE (five-point scale) [3] | percentage damage caused to the plant, AMARE (five-point scale) [5] | percentage damage caused to the plant, AMAPA (five-point scale) [6] | percentage damage caused to the plant, IPOHE (five-point scale) [7] | percentage damage caused to the plant, ECHCG (five-point scale) [8]
4 (4=61-80%): percentage damage caused to the plant, ECHCG (five-point scale) [4]

CCn1cc(Cl)c(Cn2cc(C(F)(F)F)nc2-c2ccc(Cl)nc2)n1 [Compound 1.100]
1 (1=0-20%): percentage damage caused to the plant, AMARE (five-point scale) [1] | percentage damage caused to the plant, AMAPA (five-point scale) [2] | percentage damage caused to the plant, IPOHE (five-point scale) [3] | percentage damage caused to the plant, ECHCG (five-point scale) [4] | percentage damage caused to the plant, AMARE (five-point scale) [5] | percentage damage caused to the plant, AMAPA (five-point scale) [6] | percentage damage caused to the plant, IPOHE (five-point scale) [7] | percentage damage caused to the plant, ECHCG (five-point scale) [8]

Cc1cnc(Cn2cc(C(F)(F)F)nc2-c2ccc(Cl)nc2)s1 [Compound 1.034]
4 (4=61-80%): percentage damage caused to the plant, IPOHE (five-point scale) [3]
5 (5=81-100%): percentage damage caused to the plant, AMARE (five-point scale) [1] | percentage damage caused to the plant, AMAPA (five-point scale) [2] | percentage damage caused to the plant, ECHCG (five-point scale) [4] | percentage damage caused to the plant, AMARE (five-point scale) [5] | percentage damage caused to the plant, AMAPA (five-point scale) [6] | percentage damage caused to the plant, IPOHE (five-point scale) [7] | percentage damage caused to the plant, ECHCG (five-point scale) [8]

FC(F)(F)c1cn(Cc2ccns2)c(-c2ccc(Cl)nc2)n1 [Compound 1.113]
1 (1=0-20%): percentage damage caused to the plant, AMARE (five-point scale) [1] | percentage damage caused to the plant, AMAPA (five-point scale) [2] | percentage damage caused to the plant, IPOHE (five-point scale) [3] | percentage damage caused to the plant, ECHCG (five-point scale) [4] | percentage damage caused to the plant, AMARE (five-point scale) [5] | percentage damage caused to the plant, AMAPA (five-point scale) [6] | percentage damage caused to the plant, IPOHE (five-point scale) [7] | percentage damage caused to the plant, ECHCG (five-point scale) [8]

Cc1cnc(Cn2cc(C(F)(F)F)nc2-c2ccc(Cl)nc2)o1 [Compound 1.094]
4 (4=61-80%): percentage damage caused to the plant, ECHCG (five-point scale) [4] | percentage damage caused to the plant, IPOHE (five-point scale) [7]
5 (5=81-100%): percentage damage caused to the plant, AMARE (five-point scale) [1] | percentage damage caused to the plant, AMAPA (five-point scale) [2] | percentage damage caused to the plant, AMARE (five-point scale) [5] | percentage damage caused to the plant, AMAPA (five-point scale) [6] | percentage damage caused to the plant, ECHCG (five-point scale) [8]
3 (3=41-60%): percentage damage caused to the plant, IPOHE (five-point scale) [3]

Cc1noc(Cn2cc(C(F)(F)F)nc2-c2cnc(F)c(Cl)c2)n1 [Compound 1.151]
4 (4=61-80%): percentage damage caused to the plant, IPOHE (five-point scale) [3]
3 (3=41-60%): percentage damage caused to the plant, ECHCG (five-point scale) [4] | percentage damage caused to the plant, ECHCG (five-point scale) [8]
5 (5=81-100%): percentage damage caused to the plant, AMARE (five-point scale) [1] | percentage damage caused to the plant, AMAPA (five-point scale) [2] | percentage damage caused to the plant, AMARE (five-point scale) [5] | percentage damage caused to the plant, AMAPA (five-point scale) [6] | percentage damage caused to the plant, IPOHE (five-point scale) [7]

CC(C)c1nnc(Cn2cc(C(F)(F)F)nc2-c2ccc(Cl)nc2)o1 [Compound 1.131]
5 (5=81-100%): percentage damage caused to the plant, AMARE (five-point scale) [5]
1 (1=0-20%): percentage damage caused to the plant, AMARE (five-point scale) [1] | percentage damage caused to the plant, AMAPA (five-point scale) [2] | percentage damage caused to the plant, IPOHE (five-point scale) [3] | percentage damage caused to the plant, ECHCG (five-point scale) [4] | percentage damage caused to the plant, AMAPA (five-point scale) [6] | percentage damage caused to the plant, IPOHE (five-point scale) [7] | percentage damage caused to the plant, ECHCG (five-point scale) [8]
